Experimental data published in patent publication US9868717B2, “Tricyclic sulphonamide compounds and methods of making and using same” (Zafgen, Inc., priority 2012, dated 2018).

These compounds were tested against T1, Human recombinant MetAP2 (Homo sapiens, UniProt P50579) (assay: inhibition of recombinant human MetAP2 activity (MAS substrate, amino acid oxidase/Amplex red fluorescence)). Details: manganese enzyme, 30 minutes at 25° C., pH 7.5, 0.75 mM MAS substrate, 1% DMSO.
T1 construct: made in house; host or cells: Sf9 insect cells
Type: biochemical
Experimental: Compounds are tested for their capacity to inhibit recombinant human MetAP2 activity using the following assay.
Human recombinant MetAP2 expressed in Sf9 cells followed by affinity purification and EDTA treatment to remove endogenous active site cation was dialysed against MnCl2 to produce the manganese enzyme used in the assay. The assay was carried out for 30 minutes at 25° C. in 50 mM HEPES buffer containing 100 mM NaCl, pH 7.5 the presence of 0.75 mM Methionine-Alanine-Serine (MAS) substrate and 50 μg/ml amino acid oxidase using a dilution of purified MetAP2 giving >3-fold signal:noise. Cleavage of the substrate by MetAP2 and oxidation of free methionine by amino acid oxidase was detected and quantified using fluorescence generated by Amplex red (10-acetyl-3,7-dihydroxyphenoxazine) in combination with horseradish peroxidase which detects H2O2 released during the oxidation step. The fluorescent signal was detected using a multiwell fluorimeter. Compounds were diluted in DMSO prior to addition to assay buffer, the final DMSO concentration in the assay being 1%.
The IC50 is defined as the concentration at which a given compound achieves 50% inhibition of control. IC50 values are calculated using the XLfit software package (version 2.0.5).

T1 sequence (P50579 whole entry): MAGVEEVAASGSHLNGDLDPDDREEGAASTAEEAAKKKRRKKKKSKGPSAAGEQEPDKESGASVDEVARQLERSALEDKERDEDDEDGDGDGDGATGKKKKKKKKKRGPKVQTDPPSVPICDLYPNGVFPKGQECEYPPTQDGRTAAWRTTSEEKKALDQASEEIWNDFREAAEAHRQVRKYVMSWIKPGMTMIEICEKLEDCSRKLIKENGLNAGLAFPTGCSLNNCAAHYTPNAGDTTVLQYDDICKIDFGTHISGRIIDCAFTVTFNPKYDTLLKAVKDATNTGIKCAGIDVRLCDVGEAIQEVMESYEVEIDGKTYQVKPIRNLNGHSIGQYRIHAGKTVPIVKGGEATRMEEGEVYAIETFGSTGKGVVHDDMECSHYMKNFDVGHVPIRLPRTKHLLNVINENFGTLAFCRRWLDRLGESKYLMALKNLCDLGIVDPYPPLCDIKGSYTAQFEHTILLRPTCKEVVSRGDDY

IC50 | Compound
< 50 nM | O=C(O)c1c(NS(=O)(=O)c2ccc(F)cc2/C=C\CN2CC[C@H](CO)C2)ccc2c1OC[C@@H]1C[C@H]21 [Example 25, (1aR,7bS)-5-{4-Fluoro-2-[(Z)-3-((S)-3-hydroxymethylpyrrolidin-1-yl)prop-1-enyl]benzenesulfonylamino}-1,1a,2,7b-tetrahydrocyclopropa[c]chromene-4-carboxylic acid]
< 50 nM | O=C(O)c1c(NS(=O)(=O)c2ccc(F)cc2/C=C\CN2CC[C@@H](CO)C2)ccc2c1OC[C@@H]1C[C@H]21 [Example 26, (1aR,7bS)-5-{4-Fluoro-2-[(Z)-3-((R)-3-hydroxymethylpyrrolidin-1-yl)prop-1-enyl]benzenesulfonylamino}-1,1a,2,7b-tetrahydrocyclopropa[c]chromene-4-carboxylic acid]
< 50 nM | CC(C)(O)[C@H]1CCN(C/C=C\c2cc(F)ccc2S(=O)(=O)Nc2ccc3c(c2C(=O)O)OC[C@@H]2C[C@H]32)C1 [Example 27, (1aR,7bS)-5-(4-Fluoro-2-{(Z)-3-[(S)-3-(2-hydroxypropan-2-yl)pyrrolidin-1-yl]prop-1-enyl}benzenesulfonylamino)-1,1a,2,7b-tetrahydrocyclopropa[c]chromene-4-carboxylic acid]
< 50 nM | CC(C)(O)[C@@H]1CCN(C/C=C\c2cc(F)ccc2S(=O)(=O)Nc2ccc3c(c2C(=O)O)OC[C@@H]2C[C@H]32)C1 [Example 28, (1aR,7bS)-5-(4-Fluoro-2-{(Z)-3-[(R)-3-(2-hydroxypropan-2-yl)pyrrolidin-1-yl]prop-1-enyl}benzenesulfonylamino)-1,1a,2,7b-tetrahydrocyclopropa[c]chromene-4-carboxylic acid]
< 50 nM | O=C(O)c1c(NS(=O)(=O)c2ccc(F)cc2CC2CC3CCCN3C2)ccc2c1OC[C@@H]1C[C@H]21 (stereo partly drawn) [Example 29, (1aR,7bS)-5-[4-Fluoro-2-(hexahydro-1H-pyrrolizin-2-ylmethyl)benzene-sulfonylamino]-1,1a,2,7b-tetrahydrocyclopropa[c]chromene-4-carboxylic acid]
< 50 nM | CCN1CC[C@@H](Cc2ccccc2S(=O)(=O)Nc2ccc3c(c2C(=O)O)OC[C@@H]2C[C@H]32)C1 [Example 31, (1aR,7bS)-5-[2-((3R)-1-Ethylpyrrolidin-3-ylmethyl)benzenesulfonylamino]-1,1a,2,7b-tetrahydrocyclopropa[c]chromene-4-carboxylic acid]
< 50 nM | CCN1CC[C@H](C(=O)NCc2cc(F)ccc2S(=O)(=O)Nc2ccc3c(c2C(=O)O)OC[C@@H]2C[C@H]32)C1 [Example 32, (1aR,7bS)-5-{2-[((S)-1-ethylpyrrolidine-3-carbonyl)aminomethyl]-4-fluoro-benzenesulfonylamino}-1,1a,2,7b-tetrahydrocyclopropa[c]chromene-4-carboxylic acid-formic acid (1:1)]
< 50 nM | CCN1CC[C@@H](NCCc2cc(F)ccc2S(=O)(=O)Nc2ccc3c(c2C(=O)O)OC[C@@H]2C[C@H]32)C1 [Example 33, (1aR,7bS)-5-{2-[2-((R)-1-ethylpyrrolidin-3-ylamino)ethyl]-4-fluoro-benzene-sulfonylamino}-1,1a,2,7b-tetrahydrocyclopropa[c]chromene-4-carboxylic acid-formic acid (1:1)]
